“Also recorded” adds a separate entry of the source.
Columns and labels:
[1] = tested on: PBMCs recovered from patients treated with TroVax; assay: IFNγ ELISPOT with PBMCs from TroVax treated patients; format: cell-based, human; details: for IFNγ ELISPOT response with A2 blocking antibody (clone BB7.2) / A2 restriction: presence of A2 blocking antibody; for Responding patient ID (positive IFNγ ELISpot response to class II 20 mer peptide): 5 μg/ml, following, not before, TroVax vaccination
[2] = tested on: PBMCs recovered from TroVax treated patients; format: cell-based, human; details: for most likely HLA restriction: from HLA-type frequency among responding patients; for HLA-type distribution among positive proliferative responses: DQ2: responding patients with HLA type DQ2 / all responding patients; for HLA-type distribution among positive proliferative responses: DQ2 / HLA-type distribution among positive proliferative responses: DQ4 / HLA-type distribution among positive proliferative responses: DQ5 / HLA-type distribution among positive proliferative responses: DQ6 / HLA-type distribution among positive proliferative responses: DQ7 / HLA-type distribution among positive proliferative responses: DQ8 / HLA-type distribution among positive proliferative responses: DQ9 / HLA-type distribution among positive proliferative responses: DR1 / HLA-type distribution among positive proliferative responses: DR4 / HLA-type distribution among positive proliferative responses: DR7 / HLA-type distribution among positive proliferative responses: DR8 / HLA-type distribution among positive proliferative responses: DR9 / HLA-type distribution among positive proliferative responses: DR11 / HLA-type distribution among positive proliferative responses: DR13 / HLA-type distribution among positive proliferative responses: DR15 / HLA-type distribution among positive proliferative responses: DR17 / HLA-type distribution among positive proliferative responses: DR51 / HLA-type distribution among positive proliferative responses: DR52 / HLA-type distribution among positive proliferative responses: DR53: PBMCs from TroVax treated patients; for HLA-type distribution among positive proliferative responses: DQ4: responding patients with HLA type DQ4 / all responding patients; for HLA-type distribution among positive proliferative responses: DQ5: responding patients with HLA type DQ5 / all responding patients; for HLA-type distribution among positive proliferative responses: DQ6: responding patients with HLA type DQ6 / all responding patients; for HLA-type distribution among positive proliferative responses: DQ7: responding patients with HLA type DQ7 / all responding patients; for HLA-type distribution among positive proliferative responses: DQ8: responding patients with HLA type DQ8 / all responding patients; for HLA-type distribution among positive proliferative responses: DQ9: responding patients with HLA type DQ9 / all responding patients; for HLA-type distribution among positive proliferative responses: DR1: responding patients with HLA type DR1 / all responding patients; for HLA-type distribution among positive proliferative responses: DR4: responding patients with HLA type DR4 / all responding patients; for HLA-type distribution among positive proliferative responses: DR7: responding patients with HLA type DR7 / all responding patients; for HLA-type distribution among positive proliferative responses: DR8: responding patients with HLA type DR8 / all responding patients; for HLA-type distribution among positive proliferative responses: DR9: responding patients with HLA type DR9 / all responding patients; for HLA-type distribution among positive proliferative responses: DR11: responding patients with HLA type DR11 / all responding patients; for HLA-type distribution among positive proliferative responses: DR13: responding patients with HLA type DR13 / all responding patients; for HLA-type distribution among positive proliferative responses: DR15: responding patients with HLA type DR15 / all responding patients; for HLA-type distribution among positive proliferative responses: DR17: responding patients with HLA type DR17 / all responding patients; for HLA-type distribution among positive proliferative responses: DR51: responding patients with HLA type DR51 / all responding patients; for HLA-type distribution among positive proliferative responses: DR52: responding patients with HLA type DR52 / all responding patients; for HLA-type distribution among positive proliferative responses: DR53: responding patients with HLA type DR53 / all responding patients
[3] = target: MHC class I allele A*0101 (A1) (Homo sapiens, UniProt P04439, A114D/A174V/A182V/D101N/D185E/E176A/E190D/L180R/Q94H/R68K/S129P/T187R/V100A/V91M/W191G); assay: iTopia peptide binding assay, A*0101; details: percent of positive control peptide binding; peptide at 1.11×10^−5M
Procedure, shortened: (§1)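 iTopia plates coated with the respective MHC class I allele; 9-mer peptides bound at 1.11×10^−5M under standardized optimal conditions alongside an allele-specific control peptide at the same concentration. Total fluorescence read after antibody removal, in duplicate; binding given as percent of positive control peptide binding.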

[4] = target: MHC class I allele A*0201 (A2) (Homo sapiens, UniProt P04439, D140Y/D185E/D98H/E176V/E277Q/G131W/G231S/I119V/I121R/I166T/I218V/L300P/L318F/N151K/N90K/P208A/P217A/Q86G/Q94H/R138H/R169H/T345S); assay: iTopia peptide binding assay, A*0201; details: percent of positive control peptide binding; peptide at 1.11×10^−5M
Procedure, shortened: as §1

[5] = target: MHC class I allele A*0301 (A3) (Homo sapiens, UniProt P04439); assay: iTopia peptide binding assay, A*0301; details: percent of positive control peptide binding; peptide at 1.11×10^−5M
Procedure, shortened: as §1

[6] = target: MHC class I allele B*0702 (B7) (Homo sapiens, UniProt P01889); assay: iTopia peptide binding assay, B*0702; details: percent of positive control peptide binding; peptide at 1.11×10^−5M
Procedure, shortened: as §1

[7] = 10 mer vs 9 mer experiment, absence of A2 blocking antibody, FIG. 14
[8] = PBMCs of patient TV2-018, X+6 wk and X+10 wk, FIG. 11-13
[9] = positive proliferative responses

MPGGCSRGPA [10 mer peptide 1]
IFNγ ELISPOT response [1, 7]: no response

RLARLALVLL [10 mer peptide 9]
IFNγ ELISPOT response [1, 7]: response | IFNγ ELISPOT response [1, 8]: capable of inducing an ex-vivo IFNγ response | IFNγ ELISPOT response with A2 blocking antibody (clone BB7.2) / A2 restriction [1]: A2 restricted

LTCAYPEKMRNRVLLELNSA [Peptide 41.2]
Responding patient ID (positive IFNγ ELISpot response to class II 20 mer peptide) [1]: TV2-002; also recorded: TV2-005; also recorded: TV2-012; also recorded: TV2-015; also recorded: TV2-016 | most likely HLA restriction [2]: DQ6, DR51, or DR15 | responders with HLA type DQ6 out of all responders [2, 9]: 9 out of 13 | responders with HLA type DR15 out of all responders [2, 9]: 6 out of 13 | responders with HLA type DR51 out of all responders [2, 9]: 7 out of 13 | HLA-type distribution among positive proliferative responses: DQ2 [2]: 5/13 | HLA-type distribution among positive proliferative responses: DQ4 [2]: 0/13 | HLA-type distribution among positive proliferative responses: DQ5 [2]: 5/13 | HLA-type distribution among positive proliferative responses: DQ6 [2]: 9/13 | HLA-type distribution among positive proliferative responses: DQ7 [2]: 3/13 | HLA-type distribution among positive proliferative responses: DQ8 [2]: 0/13 | HLA-type distribution among positive proliferative responses: DQ9 [2]: 0/13 | HLA-type distribution among positive proliferative responses: DR1 [2]: 3/13 | HLA-type distribution among positive proliferative responses: DR4 [2]: 1/13 | HLA-type distribution among positive proliferative responses: DR7 [2]: 3/13 | HLA-type distribution among positive proliferative responses: DR8 [2]: 0/13 | HLA-type distribution among positive proliferative responses: DR9 [2]: 0/13 | HLA-type distribution among positive proliferative responses: DR11 [2]: 3/13 | HLA-type distribution among positive proliferative responses: DR13 [2]: 2/13 | HLA-type distribution among positive proliferative responses: DR15 [2]: 6/13 | HLA-type distribution among positive proliferative responses: DR17 [2]: 2/13 | HLA-type distribution among positive proliferative responses: DR51 [2]: 7/13 | HLA-type distribution among positive proliferative responses: DR52 [2]: 5/13 | HLA-type distribution among positive proliferative responses: DR53 [2]: 4/13

ARLALVLLGW [10 mer peptide 10]
IFNγ ELISPOT response [1, 7]: no response

RLRLARLALV [10 mer peptide 8]
IFNγ ELISPOT response [1, 7]: response | IFNγ ELISPOT response [1, 8]: capable of inducing an ex-vivo IFNγ response

FLTGNQLAVL [10 mer peptide 49]
IFNγ ELISPOT response [1, 7]: response | IFNγ ELISPOT response [1, 8]: capable of inducing an ex-vivo IFNγ response | IFNγ ELISPOT response with A2 blocking antibody (clone BB7.2) / A2 restriction [1]: A2 restricted

NLFLTGNQLA [10 mer peptide 48]
IFNγ ELISPOT response [1, 7]: no response

NIRDACRDHM [10 mer peptide 194]
IFNγ ELISPOT response [1, 8]: capable of inducing an ex-vivo IFNγ response

MVTWLKETEVVQGKDRLTCA [Peptide 39.2]
Responding patient ID (positive IFNγ ELISpot response to class II 20 mer peptide) [1]: TV2-104; also recorded: TV2-110; also recorded: TV2-005; also recorded: TV2-012; also recorded: TV2-102; also recorded: TV2-103 | most likely HLA restriction [2]: DQ6, DR51, or DR52 | responders with HLA type DQ6 out of all responders [2, 9]: 6 out of 10 | responders with HLA type DR51 out of all responders [2, 9]: 5 out of 10 | responders with HLA type DR52 out of all responders [2, 9]: 5 out of 10 | HLA-type distribution among positive proliferative responses: DQ2 [2]: 4/10 | HLA-type distribution among positive proliferative responses: DQ4 [2]: 0/10 | HLA-type distribution among positive proliferative responses: DQ5 [2]: 3/10 | HLA-type distribution among positive proliferative responses: DQ6 [2]: 6/10 | HLA-type distribution among positive proliferative responses: DQ7 [2]: 2/10 | HLA-type distribution among positive proliferative responses: DQ8 [2]: 0/10 | HLA-type distribution among positive proliferative responses: DQ9 [2]: 0/10 | HLA-type distribution among positive proliferative responses: DR1 [2]: 2/10 | HLA-type distribution among positive proliferative responses: DR4 [2]: 1/10 | HLA-type distribution among positive proliferative responses: DR7 [2]: 2/10 | HLA-type distribution among positive proliferative responses: DR8 [2]: 0/10 | HLA-type distribution among positive proliferative responses: DR9 [2]: 0/10 | HLA-type distribution among positive proliferative responses: DR11 [2]: 2/10 | HLA-type distribution among positive proliferative responses: DR13 [2]: 2/10 | HLA-type distribution among positive proliferative responses: DR15 [2]: 4/10 | HLA-type distribution among positive proliferative responses: DR17 [2]: 2/10 | HLA-type distribution among positive proliferative responses: DR51 [2]: 5/10 | HLA-type distribution among positive proliferative responses: DR52 [2]: 5/10 | HLA-type distribution among positive proliferative responses: DR53 [2]: 3/10

NLTEVPTDLP [10 mer peptide 41]
IFNγ ELISPOT response [1, 7]: no response

TGNQLAVLPA [10 mer peptide 50]
IFNγ ELISPOT response [1, 7]: no response

NNPWVCDCH [Peptide 147]
Peptide binding, MHC Class I Molecule A*0101 [3]: 0 % of control | Peptide binding, MHC Class I Molecule A*0201 [4]: 0 % of control | Peptide binding, MHC Class I Molecule A*0301 [5]: 16 % of control | Peptide binding, MHC Class I Molecule B*0702 [6]: 4 % of control

LELNSADLD [Peptide 168]
Peptide binding, MHC Class I Molecule A*0101 [3]: 0 % of control | Peptide binding, MHC Class I Molecule A*0201 [4]: 3 % of control | Peptide binding, MHC Class I Molecule A*0301 [5]: 5 % of control | Peptide binding, MHC Class I Molecule B*0702 [6]: 3 % of control

PRLTNLSSN [Peptide 205]
Peptide binding, MHC Class I Molecule A*0101 [3]: 2 % of control | Peptide binding, MHC Class I Molecule A*0201 [4]: 8 % of control | Peptide binding, MHC Class I Molecule A*0301 [5]: 2 % of control | Peptide binding, MHC Class I Molecule B*0702 [6]: 11 % of control

LTCAYPEKM [Peptide 161]
Peptide binding, MHC Class I Molecule A*0101 [3]: 16 % of control | Peptide binding, MHC Class I Molecule A*0201 [4]: 40 % of control | Peptide binding, MHC Class I Molecule A*0301 [5]: 8 % of control | Peptide binding, MHC Class I Molecule B*0702 [6]: 5 % of control

TDLPAYVRN [Peptide 44]
Peptide binding, MHC Class I Molecule A*0101 [3]: 7 % of control | Peptide binding, MHC Class I Molecule A*0201 [4]: 3 % of control | Peptide binding, MHC Class I Molecule A*0301 [5]: 1 % of control | Peptide binding, MHC Class I Molecule B*0702 [6]: 2 % of control

ASAVSAQPP [Peptide 25]
Peptide binding, MHC Class I Molecule A*0101 [3]: 2 % of control | Peptide binding, MHC Class I Molecule A*0201 [4]: 5 % of control | Peptide binding, MHC Class I Molecule A*0301 [5]: 0 % of control | Peptide binding, MHC Class I Molecule B*0702 [6]: 0 % of control

NRNLTEVPT [Peptide 40]
Peptide binding, MHC Class I Molecule A*0101 [3]: 1 % of control | Peptide binding, MHC Class I Molecule A*0201 [4]: 6 % of control | Peptide binding, MHC Class I Molecule A*0301 [5]: 0 % of control | Peptide binding, MHC Class I Molecule B*0702 [6]: 5 % of control

RRLELASNH [Peptide 107]
Peptide binding, MHC Class I Molecule A*0101 [3]: 0 % of control | Peptide binding, MHC Class I Molecule A*0201 [4]: 5 % of control | Peptide binding, MHC Class I Molecule A*0301 [5]: 3 % of control | Peptide binding, MHC Class I Molecule B*0702 [6]: 3 % of control

AGAFEHLPS [Peptide 68]
Peptide binding, MHC Class I Molecule A*0101 [3]: 6 % of control | Peptide binding, MHC Class I Molecule A*0201 [4]: 10 % of control | Peptide binding, MHC Class I Molecule A*0301 [5]: 3 % of control | Peptide binding, MHC Class I Molecule B*0702 [6]: 7 % of control

RTVKCVNRN [Peptide 37]
Peptide binding, MHC Class I Molecule A*0101 [3]: 7 % of control | Peptide binding, MHC Class I Molecule A*0201 [4]: 12 % of control | Peptide binding, MHC Class I Molecule A*0301 [5]: 12 % of control | Peptide binding, MHC Class I Molecule B*0702 [6]: 3 % of control

Reference: patent publication US8147838B2, “Peptide” (priority 2005, dated 2012)
